Tests used:
[1] = system: Protein Kinase G; conditions: Rho kinase inhibitor, background statement; cited from earlier work
[2] = biological target: T1, human recombinant ROCK II (Homo sapiens, UniProt O75116); assay: Determination of Rho kinase inhibition (ROCK II, Caliper peptide phosphorylation assay); assay type: biochemical; conditions: respective form (salt or free base) as obtained in the examples, 60 min at 32° C.
T1 construct: recombinant human ROCK-II residues 11-552; His6 (N); purchased Millipore GmbH, Schwalbach, Germany
T1 sequence (O75116 11-552): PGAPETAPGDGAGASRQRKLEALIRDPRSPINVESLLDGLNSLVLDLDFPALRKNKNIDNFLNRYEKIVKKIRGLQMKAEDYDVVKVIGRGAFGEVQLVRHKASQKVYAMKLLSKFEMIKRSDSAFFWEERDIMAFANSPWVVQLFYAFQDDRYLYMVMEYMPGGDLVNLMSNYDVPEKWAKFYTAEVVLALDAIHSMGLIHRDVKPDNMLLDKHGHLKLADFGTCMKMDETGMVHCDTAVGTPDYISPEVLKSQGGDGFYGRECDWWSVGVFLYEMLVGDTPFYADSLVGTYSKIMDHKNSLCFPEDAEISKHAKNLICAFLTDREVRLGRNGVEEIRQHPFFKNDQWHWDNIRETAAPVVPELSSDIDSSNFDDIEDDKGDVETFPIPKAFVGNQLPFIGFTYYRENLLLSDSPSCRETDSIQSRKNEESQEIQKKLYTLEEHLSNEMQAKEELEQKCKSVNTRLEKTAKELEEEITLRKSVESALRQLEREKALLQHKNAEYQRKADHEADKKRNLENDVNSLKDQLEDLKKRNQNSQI
In short: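 Enzyme: active N-terminal His6-tagged recombinant human ROCK-II, residues 11-552. Substrate: a fluorescein-labelled peptide, with ATP. IC50 values were determined.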

[3] = biological target: T2, recombinant human PKA (Homo sapiens, UniProt P17612); assay: Determination of Protein Kinase A inhibition (selectivity); assay type: biochemical; conditions: from IC50 values
T2 construct: recombinant human PKA (residues 1-351, N-terminal His-tag); His-tag (N); purchased Invitrogen, Karlsruhe, Germany
In short: (§1)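 Full-length His-tagged PKG1-beta and His-tagged PKA (residues 1-351) assayed in Tris-HCl pH 7.4 with fluorescein-labelled peptide and ATP (diluted to 3 μM and 120 μM before mixing), 60 min at 32° C. EDTA-stopped; substrate phosphorylation detected by Caliper mobility-shift separation, giving IC50 values.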

[4] = biological target: T3, recombinant human PKG1-beta (Homo sapiens, UniProt Q13976); assay: Determination of Protein Kinase G inhibition (selectivity); assay type: biochemical; conditions: from IC50 values
T3 construct: PKG1-beta (full-length, with N-terminal His-tag); His-tag (N); purchased Millipore GmbH, Schwalbach, Germany
T3 sequence (Q13976 1-686 isoform Q13976-2): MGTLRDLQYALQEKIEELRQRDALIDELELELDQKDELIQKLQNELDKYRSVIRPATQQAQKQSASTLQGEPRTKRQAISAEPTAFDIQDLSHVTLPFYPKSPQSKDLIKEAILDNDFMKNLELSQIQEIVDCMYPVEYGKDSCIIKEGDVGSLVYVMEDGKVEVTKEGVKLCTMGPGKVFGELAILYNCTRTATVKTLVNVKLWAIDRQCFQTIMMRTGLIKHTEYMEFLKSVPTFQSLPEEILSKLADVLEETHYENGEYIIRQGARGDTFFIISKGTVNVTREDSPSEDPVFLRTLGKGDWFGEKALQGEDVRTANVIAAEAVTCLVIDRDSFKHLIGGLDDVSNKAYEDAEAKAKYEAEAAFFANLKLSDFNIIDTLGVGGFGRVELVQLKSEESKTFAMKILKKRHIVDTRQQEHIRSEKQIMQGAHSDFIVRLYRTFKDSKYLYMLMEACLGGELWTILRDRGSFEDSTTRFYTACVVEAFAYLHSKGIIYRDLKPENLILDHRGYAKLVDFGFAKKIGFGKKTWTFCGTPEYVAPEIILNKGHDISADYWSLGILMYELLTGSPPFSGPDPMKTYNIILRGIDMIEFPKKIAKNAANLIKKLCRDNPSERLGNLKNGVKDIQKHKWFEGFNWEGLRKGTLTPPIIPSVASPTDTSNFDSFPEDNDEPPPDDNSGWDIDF
In short: as §1

IC50 [2] | Selectivity against PKA [3] | Selectivity against PKG [4] | Structure (SMILES) | selectivity against Protein Kinase G [1]
 |  |  | C[C@@H](N)[C@H]1CC[C@H](C(=O)Nc2ccncc2)CC1 [Example Y-27632] | 20 fold
100 to 1000 nM | >10 fold | >10 fold | CCC(N)C1(C2CCC2)CCC(Oc2cc3cc[nH]c(=O)c3cc2Cl)CC1 (single isomer, unassigned) [Example 23, 6-[4-(1-Amino-propyl)-4-cyclobutyl-cyclohexyloxy]-7-chloro-2H-isoquinolin-1-one] | 
≤ 10 nM | >300 fold | >300 fold | CC(C)C(N)C1(CC2CC2)CCC(Oc2cc3cc[nH]c(=O)c3cc2Cl)CC1 (single isomer, unassigned) [Example 18, 6-[4-(1-Amino-2-methyl-propyl)-4-cyclopropylmethyl-cyclohexyloxy]-7-chloro-2H-isoquinolin-1-one] | 
10 to 100 nM | >1000 fold | >1000 fold | CCC(N)C1(C)CCC(Oc2cc3cc[nH]c(=O)c3cc2Cl)CC1 (single isomer, unassigned) [Example 27, 6-[4-(1-Amino-propyl)-4-methyl-cyclohexyloxy]-7-chloro-2H-isoquinolin-1-one] | 
≤ 10 nM | >1000 fold | >300 fold | CCC(N)C1(CC2CC2)CCC(Oc2cc3cc[nH]c(=O)c3cc2Cl)CC1 (single isomer, unassigned) [Example 12, 6-[4-(1-Amino-propyl)-4-cyclopropyl-methyl-cyclohexyl-oxy]-7-chloro-2H-isoquinolin-1-one] | 
≤ 10 nM | >300 fold | >300 fold | NC(C1CC1)C1(CC2CC2)CCC(Oc2cc3cc[nH]c(=O)c3cc2Cl)CC1 (single isomer, unassigned) [Example 16, 6-[4-(Amino-cyclopropyl-methyl)-4-cyclopropylmethyl-cyclohexyloxy]-7-chloro-2H-isoquinolin-1-one] | 
10 to 100 nM | >300 fold | >100 fold | CC(N)[C@]1(C2CC2)CC[C@H](Oc2cc3cc[nH]c(=O)c3cc2Cl)CC1 (stereo partly drawn) [Example 72, cis-6-[4-(1-Amino-ethyl)-4-cyclopropyl-cyclohexyloxy]-7-chloro-2H-isoquinolin-1-one] | 
100 to 1000 nM | >10 fold | >10 fold | CCC(N)[C@]1(CC)CC[C@H](Oc2c(C)cc3c(=O)[nH]ccc3c2C)CC1 (stereo partly drawn) [Example 54, cis-6-[4-(1-Amino-propyl)-4-ethyl-cyclohexyloxy]-5,7-dimethyl-2H-isoquinolin-1-one] | 
≤ 10 nM | >1000 fold | >300 fold | CCCC[C@]1(C(N)CC)CC[C@@H](Oc2cc3cc[nH]c(=O)c3cc2Cl)CC1 (stereo partly drawn) [Example 38, cis-6-[4-(1-Amino-propyl)-4-butyl-cyclohexyloxy]-7-chloro-2H-isoquinolin-1-one] | 
100 to 1000 nM | >10 fold | >10 fold | CCC(N)C1(CC(C)C)CCC(Oc2cc3cc[nH]c(=O)c3cc2Cl)CC1 (single isomer, unassigned) [Example 28, 6-[4-(1-Amino-propyl)-4-isobutyl-cyclohexyloxy]-7-chloro-2H-isoquinolin-1-one] | 
10 to 100 nM | >10 fold | >10 fold | CCCC(N)C1(CC2CC2)CCC(Oc2cc3cc[nH]c(=O)c3cc2Cl)CC1 (single isomer, unassigned) [Example 15, 6-[4-(1-Amino-butyl)-4-cyclopropylmethyl-cyclohexyloxy]-7-chloro-2H-isoquinolin-1-one] | 
≤ 10 nM | >1000 fold | >1000 fold | CCC(N)C1(C(F)(F)F)CCC(Oc2cc3cc[nH]c(=O)c3cc2Cl)CC1 (single isomer, unassigned) [Example 103, 6-[4-(1-Amino-propyl)-4-trifluoromethyl-cyclohexyloxy]-7-chloro-2H-isoquinolin-1-one] | 
100 to 1000 nM | >100 fold | >10 fold | CCC(N)[C@]1(CC)CC[C@H](Oc2cc3cc[nH]c(=O)c3cc2C)CC1 (stereo partly drawn) [Example 52, cis-6-[4-(1-Amino-propyl)-4-ethyl-cyclohexyloxy]-7-methyl-2H-isoquinolin-1-one] | 
10 to 100 nM | >300 fold | >100 fold | CC[C@]1(C(C)N)CC[C@@H](Oc2cc3cc[nH]c(=O)c3cc2C)CC1 (stereo partly drawn) [Example 37, cis-6-[4-(1-Amino-ethyl)-4-ethyl-cyclohexyloxy]-7-methyl-2H-isoquinolin-1-one] | 
10 to 100 nM | >100 fold | >300 fold | CC(N)C1(CC2CC2)CCC(Oc2cc3cc[nH]c(=O)c3cc2Cl)CC1 (single isomer, unassigned) [Example 11, 6-[4-(1-Amino-ethyl)-4-cyclopropylmethyl-cyclohexyloxy]-7-chloro-2H-isoquinolin-1-one] | 
≤ 10 nM | >1000 fold | >100 fold | CCCC(N)C1(CC2CC2)CCC(Oc2cc3cc[nH]c(=O)c3cc2Cl)CC1 (single isomer, unassigned) [Example 14, 6-[4-(1-Amino-butyl)-4-cyclopropylmethyl-cyclohexyloxy]-7-chloro-2H-isoquinolin-1-one] | 
10 to 100 nM | >300 fold | >100 fold | CCC(N)C1(C2CCC2)CCC(Oc2cc3cc[nH]c(=O)c3cc2Cl)CC1 (single isomer, unassigned) [Example 22, 6-[4-(1-Amino-propyl)-4-cyclobutyl-cyclohexyloxy]-7-chloro-2H-isoquinolin-1-one] | 
≤ 10 nM | >1000 fold | >100 fold | CCCC(N)[C@]1(C)CC[C@H](Oc2cc3cc[nH]c(=O)c3cc2Cl)CC1 (stereo partly drawn) [Example 62, cis-6-[4-(1-Amino-butyl)-4-methyl-cyclohexyloxy]-7-chloro-2H-isoquinolin-1-one] | 
10 to 100 nM | >300 fold | >10 fold | CCCC(N)[C@]1(C(C)C)CC[C@H](Oc2cc3cc[nH]c(=O)c3cc2Cl)CC1 (stereo partly drawn) [Example 35, cis-6-[4-(1-Amino-butyl)-4-isopropyl-cyclohexyloxy]-7-chloro-2H-isoquinolin-1-one] | 

Structure (SMILES) | IC50 [2] | Selectivity against PKA [3] | Selectivity against PKG [4] | selectivity against Protein Kinase G [1]
CCC1(C(C)N)CCC(Oc2cc3cc[nH]c(=O)c3cc2Cl)CC1 (single isomer, unassigned) [Example 3, 6-[4-(1-Amino-ethyl)-4-ethyl-cyclohexyloxy]-7-chloro-2H-isoquinolin-1-one] | ≤ 10 nM | >1000 fold | >1000 fold | 
